Assay results as given in patent US20090012446A1, “DEVICES, SYSTEMS AND METHODS FOR RELEASE OF CHEMICAL AGENTS” (priority 2007, published 2009).

Columns and labels:
[1] = tested on: cultured hippocampal network; assay: Evoked reverberatory activity of a cultured hippocampal network, patch clamping (polysynaptic current); assay type: cell-based, rat
Text: In several studies, the NMDA-type glutamate receptor antagonist AP-5 was, for example, incorporated as a dopant into PPy-coated gold “macro-electrodes” (having an area of 0.77-cm^2). In general, macro-electrodes or macroelectrodes have dimensions greater than 1 mm. A hippocampal neuronal culture and patch clamping were used to test the effectiveness of AP5 release. The drug was released from the electrode into normal recording solution by applying 30 cyclic voltage stimuli. This solution, when added to the neuronal culture, blocked evoked reverberatory activity in the network. […] 280 trials (at 30 s intervals) of evoked activity of a cultured hippocampal network under 5 different conditions were made in several studies as follows: 1. control (ctrl); 2. with 25 μM D-AP5 (AP5); 3. wash with recording solution that soaked the macroelectrode without voltage pulses (wash1); 4. with recording solution containing electrically released AP5 (AP5_r); 5. wash with normal recording solution (wash2). […] FIGS. 3A-3E sets forth example traces of polysynaptic current with one sample trace for each test condition. The scale bar in FIGS. 3A-E is 0.5 nA, 1 s.

[2] = tested on: low-density neuronal network; assay: Patch clamp recording of monosynaptic currents in low-density neuronal network on PPy-modified MED64 after command signal; assay type: cell-based
Text: FIG. 6A is a photomicrograph image of a low-density neuronal network growing on a conducting polymer modified multielectrode array (MED64 available from Panasonic). The platinum coated electrodes are modified with the conducting polymer poly-pyrrole (PPy) containing either CNQX or chloride and phosphate ions (P) from PBS (blank release control). Release of the drug is affected by a “command signal,” which is the delivery of a voltage pulse (−2.5 V, 200 ms). Neuron “firing,” the generation of action potentials, is an all or none phenomenon. Synaptic currents are a continuous and graded phenomenon. For this reason synaptic currents recorded by patch electrodes better reflect the release and diffusion of the synaptic inhibitor CNQX, compared to action potentials recorded by the extracellular electrodes. To monitor the effect of release, individual cells in the network are patch clamped (wherein the patched cell is indicated by an arrow in FIG. 6A). The experimental protocol is described graphically in FIG. 6B. Neural stimulations (ns1,2, . . . ,8) are delivered through the substrate electrodes (but not the releasing electrode). The command signal starts 300 ms prior to ns2, and the currents are recorded by the patch electrode. […] FIG. 6C sets forth 8 columns corresponding to ns1 . . . 8, and 6 rows corresponding to individual trials. […]

[3] = tested on: neuronal cultures from E18 rat cortices; assay: Extracellular recording of spontaneous spiking on MED64 microelectrodes coated with polypyrrole/CNQX after current stimulus; assay type: cell-based
Text: CNQX is an AMPA type glutamate receptor antagonist which inhibits excitatory neural transmission. We electrodeposited polypyrrole/CNQX on the microelectrodes of MED64 probes which were than plated with neuronal cultures from E18 rat cortices. When spontaneous activity was observed on an electrode bearing a CNQX/PPy film, a current stimulus (four 1 s-long pulses of −5 μA with 200 ms refractory periods in between) was applied to the electrode. Recordings were taken before and after the stimulus to observe any inhibition and recovery (during the stimulation it was not possible to record from the particular electrode given the pulse).
It was observed that neural spiking disappeared after applying the stimulus to an electrode bearing the PPy/CNQX. And at a later time point action potentials from the same cell (determined by examination of the waveforms in Offline Sorter and Wave Tracker, Plexon Inc.) reappeared on the electrode and the rate returned to baseline (determined by pre-stimulus control recordings). […] We determined, through repeated release, inhibition and recovery cycles, a time course of inhibition and recovery (see FIG. 5B) that appears consistent with the published effect of CNQX and with the theoretical estimate of CNQX diffusion in solution. In the studies of FIG. 5B, repeated CNQX release trials were performed to determine a time course of recovery. […]

Structure (SMILES)	reverberatory activity (polysynaptic current) ([1]; added AP5, 25 μM D-AP5 in recording solution)	reverberatory activity (polysynaptic current) ([1]; recording solution containing AP5 electrically released from PPy macroelectrode by 30 cyclic voltage stimuli (AP5_r))	monosynaptic current following release (individual trial, FIG. 6C) ([2]; cell close to a CNQX containing electrode)	size of monosynaptic currents following command signal ([2]; voltage pulse −2.5 V, 200 ms to electrode with PPy film containing CNQX)	neuronal spiking on the releasing/recording electrode after release ([3]; four 1 s pulses of −5 μA, transient, with subsequent recovery to baseline)	spiking activity on neighboring electrodes after release ([3]; inter-electrode distance of 212 μm)
N[C@H](CCCP(=O)(O)O)C(=O)O [AP5, 2-amino-5-phosphonopentanoic acid]	completely blocked	completely blocked	–	–	–	–
N#Cc1cc2nc(O)c(O)nc2cc1[N+](=O)[O-] [CNQX, 6-cyano-7-nitroquinoxaline-2,3-dione]	–	–	almost completely abolished	significant decrease	suppression of neuronal spiking	did not affect spiking activity on neighboring electrodes
